Experimental data from patent publication US8569314B2, “Triazolo and tetrazolo pyrimidine derivatives as HNE inhibitors for treating COPD” (Bayer Intellectual Property GmbH, priority 2009, dated 2013).
Structures can show the parent of a compound that is named as a salt.

How the values were obtained:
[1] = molecular target: human neutrophil elastase (HNE) (Homo sapiens (Human), UniProt P08246); experiment: In vitro HNE inhibition assay (fluorogenic peptide substrate MeOSuc-Ala-Ala-Pro-Val-AMC); assay type: biochemical; conditions: HNE concentration of 80 pM; 37° C., 2 hours
Excerpt: B-1. In Vitro HNE Inhibition Assay
The potency of the compounds of the invention is ascertained in an in vitro inhibition assay. The HNE-mediated amidolytic cleavage of a suitable peptide substrate leads in this connection to an increase in the fluorescent light. The signal intensity of the fluorescent light is directly proportional to the enzyme activity. The effective concentration of a test compound at which half the enzyme is inhibited (50% signal intensity of the fluorescent light) is indicated as IC50.
Enzyme (80 pM HNE; from Serva, Heidelberg) and substrate (20 μM MeOSuc-Ala-Ala-Pro-Val-AMC; from Bachem, Weil am Rhein) are incubated in an assay volume of in total 50 μl of assay buffer (0.1 M HEPES pH 7.4, 0.5 M NaCl, 0.1% w/v BSA, 1% v/v DMSO) in a 384-well microtiter plate in the presence and absence of the test substance at 37° C. for 2 hours. The intensity of the fluorescent light from the assay mixtures is measured (Ex. 380 nm, Em. 460 nm). The IC50 values are determined by plotting the intensity of the fluorescent light against the active substance concentration.

[2] = molecular target: pancreas elastase (Sus scrofa (Pig), UniProt P00772); conditions: cited from earlier work
pancreas elastase, sequence (P00772 27-266): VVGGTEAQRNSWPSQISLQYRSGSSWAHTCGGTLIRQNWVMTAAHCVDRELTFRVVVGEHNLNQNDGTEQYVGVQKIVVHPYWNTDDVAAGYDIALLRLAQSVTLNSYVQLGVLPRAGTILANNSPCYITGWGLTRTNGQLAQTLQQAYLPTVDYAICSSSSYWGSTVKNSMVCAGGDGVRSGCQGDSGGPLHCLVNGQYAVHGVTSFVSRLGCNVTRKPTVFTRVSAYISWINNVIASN

human neutrophil elastase (HNE), sequence (P08246 30-267): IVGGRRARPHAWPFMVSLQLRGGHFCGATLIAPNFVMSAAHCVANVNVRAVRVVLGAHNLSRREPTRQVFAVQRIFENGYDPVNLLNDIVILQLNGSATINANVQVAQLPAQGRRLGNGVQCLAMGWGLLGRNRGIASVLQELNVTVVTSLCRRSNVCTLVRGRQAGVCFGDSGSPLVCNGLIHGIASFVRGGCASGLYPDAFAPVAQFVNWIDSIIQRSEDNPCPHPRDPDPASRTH

Structure (SMILES) | IC50 [1] | IC50 [2]
CC1=C(C#N)C(c2ccc(C#N)cc2S(C)(=O)=O)n2nc(N3C(=O)c4ccccc4C3=O)nc2N1c1cccc(C(F)(F)F)c1 (racemic) [Example 5, (rac)-7-[4-Cyano-2-(methylsulfonyl)phenyl]-2-(1,3-dioxo-1,3-dihydro-2H-isoindol-2-yl)-5-methyl-4-[3-(trifluoromethyl)phenyl]-4,7-dihydro[1,2,4]triazolo[1,5-a]pyrimidine-6-carbonitrile] | < 0.3 nM | –
CC1=C(C#N)[C@@H](c2ccc(C#N)cc2S(C)(=O)=O)n2nc(N)nc2N1c1cccc(C(F)(F)F)c1 [Example 9, (7S)-2-Amino-7-[4-cyano-2-(methylsulfonyl)phenyl]-5-methyl-4-[3-(trifluoromethyl)phenyl]-4,7-dihydro[1,2,4]triazolo[1,5-a]pyrimidine-6-carbonitrile hydrochloride] | < 0.3 nM | –
CC1=C(C#N)[C@@H](c2ccc(C#N)cc2)n2nc(NC(=O)C3CCCCC3)nc2N1c1cccc(C(F)(F)F)c1 [Example 23, N-{(7R)-6-Cyano-7-(4-cyanophenyl)-5-methyl-4-[3-(trifluoromethyl)phenyl]-4,7-dihydro[1,2,4]triazolo[1,5-a]pyrimidin-2-yl}cyclohexanecarboxamide] | < 0.3 nM | –
CC1=C(C#N)[C@@H](c2ccc(C#N)cc2S(C)(=O)=O)n2nc(NC(=O)C3CC3)nc2N1c1cccc(C(F)(F)F)c1 [Example 35, N-{(7S)-6-Cyano-7-[4-cyano-2-(methylsulfonyl)phenyl]-5-methyl-4-[3-(trifluoromethyl)phenyl]-4,7-dihydro[1,2,4]triazolo[1,5-a]pyrimidin-2-yl}cyclopropanecarboxamide] | < 0.3 nM | –
CC(C)(C)C(=O)Oc1ccc(S(=O)(=O)Nc2ccccc2C(=O)NCC(=O)O)cc1 [sivelestat] | – | 5600 nM

Second part, led by results:

IC50 [1] | Structure (SMILES) | IC50 [2]
85 nM | CC1=C(C#N)C(c2ccc(C#N)cc2)n2nc(C(C)C)nc2N1c1cccc(C(F)(F)F)c1 (racemic) [Example 67, (rac)-7-(4-Cyanophenyl)-5-methyl-2-(1-methylethyl)-4-[3-(trifluoromethyl)phenyl]-4,7-dihydro-[1,2,4]triazolo[1,5-a]pyrimidine-6-carbonitrile] | –
3 nM | CCOC(=O)C1=C(C)N(c2cccc(C(F)(F)F)c2)c2nc3cncnc3n2C1c1ccc(C#N)cc1 (racemic) [Example 78, Ethyl(rac)-9-(4-cyanophenyl)-7-methyl-6-[3-(trifluoromethyl)phenyl]-6,9-dihydropyrimido[1,2-e]-purin-8-carboxylate] | –
< 0.3 nM | CCOC(=O)Nc1nc2n(n1)C(c1ccc(C#N)cc1)C(C(=O)OCC)=C(C)N2c1cccc(C(F)(F)F)c1 (centres unmarked) [Example 50, Ethyl 7-(4-cyanophenyl)-2-[(ethoxycarbonyl)amino]-5-methyl-4-[3-(trifluoromethyl)phenyl]-4,7-dihydro[1,2,4]triazolo[1,5-a]pyrimidine-6-carboxylate] | –
< 0.3 nM | CC1=C(C#N)[C@@H](c2ccc(C#N)cc2)n2nc(NC(=O)NCCO)nc2N1c1cccc(C(F)(F)F)c1 [Example 53, 1-{(7R)-6-Cyano-7-(4-cyanophenyl)-5-methyl-4-[3-(trifluoromethyl)phenyl]-4,7-dihydro[1,2,4]triazolo[1,5-a]pyrimidin-2-yl}-3-(2-hydroxyethyl)urea] | –
< 0.3 nM | CCNc1nc2n(n1)[C@H](c1ccc(C#N)cc1)C(C#N)=C(C)N2c1cccc(C(F)(F)F)c1 [Example 56, (7R)-7-(4-Cyanophenyl)-2-(ethylamino)-5-methyl-4-[3-(trifluoromethyl)phenyl]-4,7-dihydro-[1,2,4]triazolo[1,5-a]pyrimidine-6-carbonitrile] | –
6.5 nM | CCOC(=O)C1=C(C)N(c2cccc(C(F)(F)F)c2)c2nccn2[C@@H]1c1ccc(C#N)cc1 [Example 90, Ethyl (5R)-5-(4-cyanophenyl)-7-methyl-8-[3-(trifluoromethyl)phenyl]-5,8-dihydroimidazo[1,2-a]-pyrimidine-6-carboxylate] | –
